Drawing on publication PMC11129182, “Development of Inhibitors, Probes, and PROTAC Provides a Complete Toolbox to Study PARK7 in the Living Cell” (Journal of Medicinal Chemistry, 2024), this text covers inhibition for 24 compounds.

The assay addresses T1, PARK7 (Homo sapiens, UniProt Q99497).
T1 sequence (Q99497 1-189): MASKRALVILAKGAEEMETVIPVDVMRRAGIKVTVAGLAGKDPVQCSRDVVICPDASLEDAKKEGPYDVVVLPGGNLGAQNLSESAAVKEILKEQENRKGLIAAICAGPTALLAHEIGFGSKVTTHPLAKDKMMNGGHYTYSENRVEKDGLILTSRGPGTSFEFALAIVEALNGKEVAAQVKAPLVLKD
Description: High-throughput screen of the crude compound library, PARK7 fluorescence polarization (FP) assay with FP reagent JYQ-107. Conditions: 1.25 µM, crude compound library; read-out: HTS FP assay %Inhibition (1.25 µM). The class given is biochemical. On the technique in general: In fluorescence polarisation assays a small probe gives low polarisation when free and higher when bound to something large.

By inhibition is commonly meant the drop in the measured response relative to a control, in per cent.

On to `N#CN1CC[C@@H](C(=O)Nc2nc3c(s2)CN(C(=O)Cc2cnn(-c4ccccc4)c2)CC3)C1` [compound 148], for which the inhibition at 1.25 µM came to 80.2%.

For the compound `CCS(=O)(=O)N1CCC(C(=O)N2CCc3nc(NC(=O)[C@@H]4CCN(C#N)C4)sc3C2)(c2ccccc2)CC1` [compound 150], the inhibition at 1.25 µM worked out at 62.5%.

Consider `N#CN1CC[C@@H](C(=O)Nc2nc3c(s2)CN(C(=O)c2ccc(CNS(=O)(=O)c4ccc(F)c(F)c4F)cc2)CC3)C1` [compound 151], for which the inhibition at 1.25 µM was determined as 81.1%.

For `CC1CCCC(N2CC(C(=O)N3CCc4nc(NC(=O)[C@@H]5CCN(C#N)C5)sc4C3)CC2=O)C1C` (stereo partly drawn) [compound 153], the inhibition at 1.25 µM was found to be 64.4%.

With `N#CN1CC[C@@H](C(=O)Nc2nc3c(s2)CN(C(=O)c2csc(-c4cnc[nH]4)n2)CC3)C1` [compound 154], the inhibition at 1.25 µM was 77.3%.

As for `Cc1cc(C(=O)N2CCc3nc(NC(=O)[C@@H]4CCN(C#N)C4)sc3C2)c(C)n1C1CC1` [compound 155], the inhibition at 1.25 µM amounted to 47.7%.

With `CN(CC(=O)N1CCCC(C(=O)N2CCc3nc(NC(=O)[C@@H]4CCN(C#N)C4)sc3C2)C1)c1ccc(Cl)cn1` (stereo partly drawn) [compound 157], the inhibition at 1.25 µM was found to be 83.5%.

As to `N#CN1CC[C@@H](C(=O)Nc2nc3c(s2)CN(C(=O)C2CCN(C(=O)c4ccccn4)CC2)CC3)C1` [compound 158], the inhibition at 1.25 µM was determined as 69.2%.

`N#CN1CC[C@@H](C(=O)Nc2nc3c(s2)CN(C(=O)c2ccc(Cn4cncn4)cc2)CC3)C1` [compound 159]: the inhibition at 1.25 µM came out at 80.2%.

As for `N#CN1CC[C@@H](C(=O)Nc2nc3c(s2)CN(C(=O)c2cc(Cl)nc(N4CCCC4)c2)CC3)C1` [compound 160], the inhibition at 1.25 µM amounted to 74.9%.

As for `Cc1nc(-c2c[nH]c(C(=O)N3CCc4nc(NC(=O)[C@@H]5CCN(C#N)C5)sc4C3)c2)cs1` [compound 161], the inhibition at 1.25 µM is 86.4%.

Take `N#CN1CC[C@@H](C(=O)Nc2nc3c(s2)CN(C(=O)Cc2ccn(-c4ccccc4)n2)CC3)C1` [compound 162]: the inhibition at 1.25 µM was 82.9%.

Turning to `N#CN1CC[C@@H](C(=O)Nc2nc3c(s2)CN(C(=O)c2ccc(-c4ccccc4)o2)CC3)C1` [compound 166], the inhibition at 1.25 µM came out at 87.3%.

On to `N#CN1CC[C@@H](C(=O)Nc2nc3c(s2)CN(C(=O)c2cccnc2N2CCCCC2)CC3)C1` [compound 167], for which the inhibition at 1.25 µM came out at 69.5%.

In the case of `N#CN1CC[C@@H](C(=O)Nc2nc3c(s2)CN(C(=O)C2=NNC(=O)C2c2ccccc2)CC3)C1` (stereo partly drawn) [compound 168], the inhibition at 1.25 µM turned out to be 80.3%.

On to `Cc1nn(-c2ccc(C(F)(F)F)cn2)c(C)c1CC(=O)N1CCc2nc(NC(=O)[C@@H]3CCN(C#N)C3)sc2C1` [compound 169], for which the inhibition at 1.25 µM was determined as 77.8%.

On to `Cc1ccc(N2CCCC(C(=O)N3CCc4nc(NC(=O)[C@@H]5CCN(C#N)C5)sc4C3)C2)nc1` (stereo partly drawn) [compound 170], for which the inhibition at 1.25 µM worked out at 62.7%.

In the case of `N#CN1CC[C@@H](C(=O)Nc2nc3c(s2)CN(C(=O)c2ccc(-c4cnco4)cc2)CC3)C1` [compound 171], the inhibition at 1.25 µM was determined as 77.5%.

Regarding `Cn1nc(C(=O)N2CCc3nc(NC(=O)[C@@H]4CCN(C#N)C4)sc3C2)cc1-c1cccnc1` [compound 172], the inhibition at 1.25 µM stood at 86.7%.

For the compound `Cc1cc(COc2ccc(C(=O)N3CCc4nc(NC(=O)[C@@H]5CCN(C#N)C5)sc4C3)cc2Br)no1` [compound 173], the inhibition at 1.25 µM came to 72.5%.

In the case of `COc1ccc(C(=O)N2CCc3nc(NC(=O)[C@@H]4CCN(C#N)C4)sc3C2)cc1S(=O)(=O)NCCc1ccccn1` [compound 175], the inhibition at 1.25 µM is 78.6%.

Consider `Cc1onc(-c2ccccn2)c1C(=O)N1CCc2nc(NC(=O)[C@@H]3CCN(C#N)C3)sc2C1` [compound 176], for which the inhibition at 1.25 µM worked out at 68.5%.

On to `N#CN1CC[C@@H](C(=O)Nc2nc3c(s2)CN(C(=O)C(=O)N2CCN(c4ccccc4)CC2)CC3)C1` [compound 177], for which the inhibition at 1.25 µM turned out to be 78.6%.

As to `N#CN1CC[C@@H](C(=O)Nc2nc3c(s2)CN(C(=O)C(F)(F)n2cc(-c4ccccc4)nn2)CC3)C1` [compound 178], the inhibition at 1.25 µM worked out at 45.6%.
